Assay results as given in PMC6628648, “Enabling microbial syringol conversion through structure-guided protein engineering” (Proceedings of the National Academy of Sciences of the …, 2019).

Biological target: GcoA-F169A (Amycolatopsis sp., UniProt P0DPQ7, F169A)
Experiment: End-point stoichiometry and coupling assay (formaldehyde by tryptophan assay, aromatics by HPLC, NADH by UV/vis)
Type: biochemical, Amycolatopsis sp. ATCC 39116
Parameters: GST (N, cleaved yes); made in house; host or cells: E. coli Rosetta 2 (DE3)
Settings: for Coupling efficiency: F169A, molar ratio formaldehyde produced per NADH consumed, 200 µM NADH, 200 µM aromatic substrate; for % Formaldehyde produced: referenced to NADH consumed; for formaldehyde produced at reaction completion: 100 μM substrate
Source text: Fig. 1. Quantitative analyses of substrate consumption and product generation indicate nearly complete coupling of NADH/O2 consumption to substrate O-demethylation for guaiacol and progressively more uncoupling for syringol and 3MC. […] Reactants and products were quantified when the UV/vis spectrum ceased changing and the reaction was deemed complete. The total NADH consumed is compared with the amounts of formaldehyde and demethylated aromatic compound produced. Pyrogallol, the O-demethylated product of 3MC, is unstable in air under the conditions used in the assay and was not detected. Error bars represent ±1 SD from three or more independent measurements. P values comparing NADH consumption and formaldehyde production were 0.035 for guaiacol, 0.20 for 100 µM syringol, 0.41 for 200 µM syringol, and 0.0035 for 3MC. For NADH consumption and aromatic product production, these P values were 0.011 for guaiacol, 0.00031 for 100 µM syringol, and 0.0084 for 200 µM syringol.
The [formaldehyde] produced on reaction with GcoA-F169A and substrates was determined using a colorimetric assay with tryptophan ([28], [42]); details are provided in SI Appendix.
HPLC was used to verify the O-demethylated product of GcoA-F169A GcoA/GcoB with guaiacol, syringol, or 3MC. In addition, discontinuous HPLC was used to determine the specific activity of aromatic product disappearance. Details are provided in SI Appendix. […]
vi = Vmax[S]/(KM + [S]) (4) […]
Formaldehyde determination. A colorimetric assay using tryptophan can be used to quantify the amount of formaldehyde produced in F169 GcoA/B reactions with guaiacol, syringol, or 3MC. 0.2 µM each of F169 GcoA mutants and GcoB were dissolved in air-saturated buffer (25 mM HEPES, 50 mM NaCl) in a cuvette at pH 7.5, 25 °C. 100 µg/mL catalase was added to each reaction to capture any H2O2 formed during the uncoupled reaction. 200 μM NADH was added and the background rate recorded. 100 (guaiacol, syringol, or 3MC) or 200 (syringol) μM of substrate was then added and the reaction monitored until there was no more change, due to either substrate, NADH or O2 depletion, whichever occurred first. 200 µL of the reaction was then quenched by adding 200 µL of a 0.1% tryptophan solution in 50% ethanol and 200 µL of 90% sulfuric acid. Upon thorough mixing, 40 µL of 1% FeCl3 was added. The solution was then incubated in a heating block for 90 min at 70 °C. After cooling, the absorbance was read at 575 nm and the [formaldehyde] calculated by using ε575 nm = 4.2 mM-1 cm-1, obtained with formaldehyde as a standard (1). A negative control included everything but the substrate and was used as a baseline.
HPLC for product identification and specific activity measurement. Analyte analysis of the above end-point reactions (100 μM guaiacol, syringol, or 3MC, or 200 μM syringol) was performed on an Agilent 1100 LC system (Agilent Technologies) equipped with a G1315B diode array detector (DAD). Each sample and standard was injected at a volume of 10 μL onto a Symmetry C18 column 5 μm, 4.6 x 150 mm column (Waters). The column temperature was maintained at 30 °C and the buffers used to separate the analytes of interest was 0.01% TFA in water (A)/ acetonitrile (B). The separation was carried out using a gradient program of: (A) = 99% and (B) = 1% at time t = 0 min; (A) = 99% and (B) = 1% at time t = 2 min, (A) = 50% and (B) = 50% at t = 8 min; (A) = 1% and (B) = 99% at t = 8.01 min; (A) = 99% and (B) = 1% at t = 10.01 min; (A) = 99% and (B) = 1% at t = 11 min. The flow rate was held constant at 1.5 mL min-1, resulting in a run time of 11 minutes. DAD wavelengths of 210 and 325 nm were used for analysis of the analytes of interest. Standard curves were generated using 0-500 μM of guaiacol, syringol, 3MC, catechol, and pyrogallol. Integrated intensities vs [standards] were plotted and the resulting standard curves used to quantify the reactants and products. […]

[1] = GcoA-F169A, 100 µM substrate + 100 µM NADH
[2] = GcoA-F169A, 200 μM NADH, 210 μM O2
[3] = GcoA-F169A, NADH and syringol ∼200 μM each, 210 μM O2

GcoA-F169A, sequence (P0DPQ7 whole entry F169A): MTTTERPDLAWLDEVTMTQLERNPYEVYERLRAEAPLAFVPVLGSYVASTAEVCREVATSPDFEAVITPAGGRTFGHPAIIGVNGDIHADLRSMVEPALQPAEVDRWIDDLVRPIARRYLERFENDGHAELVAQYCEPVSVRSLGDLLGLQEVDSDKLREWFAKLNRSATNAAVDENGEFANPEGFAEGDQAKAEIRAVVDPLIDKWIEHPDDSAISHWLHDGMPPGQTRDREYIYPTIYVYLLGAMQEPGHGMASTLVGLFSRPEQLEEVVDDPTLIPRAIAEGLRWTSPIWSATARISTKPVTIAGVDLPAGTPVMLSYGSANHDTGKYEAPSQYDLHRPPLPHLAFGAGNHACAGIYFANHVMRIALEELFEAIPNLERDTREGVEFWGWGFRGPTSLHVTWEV

SMILES: COc1cccc(O)c1O [3MC, 3-methoxycatechol]
- Coupling efficiency: 64 ± 10%
- % Formaldehyde produced [1]: 52 ± 7%
- formaldehyde produced at reaction completion [2]: ~100 µM

SMILES: COc1cccc(OC)c1O [syringol, 2,6-dimethoxyphenol]
- Coupling efficiency: 104 ± 6%
- % Formaldehyde produced [1]: 125 ± 6%
- % Formaldehyde produced (GcoA-F169A, 100 µM substrate + 200 µM NADH): 91 ± 8%
- formaldehyde produced at reaction completion [2]: 170 ± 10 µM
- singly demethylated intermediate 3MC observed at the end of the reaction (GcoA-F169A, 100 μM syringol, 200 μM NADH, 210 μM O2): 50 ± 4 µM
- 3MC generated [3]: 120 ± 2 µM
- formaldehyde generated [3]: 200 ± 3 µM
- syringol consumed [3]: 150 ± 6 µM

SMILES: COc1ccccc1O [guaiacol, 2-methoxyphenol]
- Coupling efficiency: 103 ± 7%
- % Formaldehyde produced [1]: 100 ± 10%
